Converted amounts (≈) assume the structure as drawn.
Key:
malignant melanoma = tested on: malignant melanoma; parameters: method as in PMID 31564801; conditions: chemotherapeutic drug for MM; cited from earlier work
A375 cells [1] = experiment: Cell cycle assay (PI staining); type: cell-based, human; conditions: 24 h
Method: The cell cycle assay was carried out to explore the correlation between mitosis and cytotoxicity. […] The treated cells were then fixed with 70% ethanol for 12 h, washed with PBS 3 times, and stained with propidium iodide/RNase A for 30 min. After that, the red fluorescence of differently treated cells was recorded at 488 nm, and the DNA content of cells was also analyzed.

[2] = Plasma pharmacokinetics in tumor-bearing mice; conditions: nude, mouse, in vivo, iv, 600 ug/kg
Method: The TP concentrations in blood, heart, liver, spleen, lung, kidney, and tumor tissues were also quantified over time. […] The preparations were injected intravenously at drug-equivalent doses of 600 μg/kg TP. After injection, blood was sampled from the orbital vein at 5 min, 10 min, 15 min, 30 min, 1 h, 2 h, 4 h, 6 h, and 24 h. In addition, heart, liver, spleen, lung, kidney, and tumor tissues were collected at 5 min, 30 min, 1 h, 2 h, 4 h, 6 h, and 24 h. Nine mice were sacrificed at each time point (n = 3), whereas at 10 min and 15 min, the mice were only taken for blood and were not killed. The TP concentration in plasma and tissue homogenate was analyzed with UHPLC-MS/MS.
TP concentrations in cells, plasma, primary organs, and tumors were analyzed using UHPLC-MS/MS (Thermo Fisher Scientific, CA, USA). The separation was performed on an ACQUITY UPLCTM BEH C18 column (2.1 × 100 mm, i.d., 1.7 μm). The column temperature was maintained at 40 °C. The mobile phases were 1% acetic acid aqueous solution (A) and methanol (B). Isocratic elution with 40% A and 60% B was adopted at a flow rate of […]. The temperature and flow rate of dry gas (N2) were 350 °C and 8 L/min, respectively. The pressure of the nebulizer gas (N2) was 40 psi. The capillary voltage was […]. The positive multiple reaction monitoring (MRM) mode was adopted to determine TP and carbamazepine (internal standard, IS). The collision energy was 33 eV for both TP and IS. The precursor-to-product transitions were m/z 361.1 → 105.2 for TP and m/z 237.1 → 194.0 for IS.

A375 cells [3] = experiment: Cell apoptosis assay (Annexin V-APC/7-AAD flow cytometry); conditions: 24 h
Method: Then, the cells were trypsinized by pancreatic enzymes without DMSO and resuspended in 500 μL 1× Binding Buffer. The cell suspension was stationarily cultured at room temperature for 15 min in the dark after adding 7-AAD and Annexin V-APC. Subsequently, cell apoptosis and necrosis were detected with a flow cytometer.

A375 cells [4] = experiment: Transwell invasion assay; type: cell-based, human; conditions: A375 cells pretreated 6 h, Transwell with Matrigel 24 h
Method: Then, the differently treated cells were incubated in the apical Transwell insert (24-well plant covered with Matrigel polycarbonate membranes, pore size 8 μm). Meanwhile, 800 μL of DMEM with 10% FBS used for cell chemotaxis was added to the basolateral champers. After incubation for 24 h, the cells on the top side of the apical chamber were wiped, and then the migrated cells were fixed with 4% paraformaldehyde and stained with 0.1% crystal violet. After that, five random fields under an inverted microscope were visualized, and the migrated cells were counted by ImageJ software.

A375 cells [5] = experiment: CCK-8 cytotoxicity assay; type: cell-based; conditions: Homo sapiens, A-375, 24 h
Method: A375 cells were incubated with different concentrations of TP for 24 h. After that, 10 μL of CCK-8 was added to the treated cells and incubated for another 20 min. The absorbance was detected using a microplate reader.

[6] = mouse, in vivo
Method: Briefly, the mouse bodyweight of all groups was recorded throughout the treatment period. To evaluate systemic safety, after the termination of treatment, the tissues of the heart, liver, spleen, lung, and kidney were collected to calculate organ indexes [mass of the organ (mg)/bodyweight (g)] and to stain for H&E. In addition, orbital blood was sampled for a routine blood test, hepatic function test and renal function test, including RBC, WBC, ALT, and Cr.

[7] = In vivo antitumor efficacy in A375 xenograft tumor model; conditions: tumor-bearing mice, Kaplan–Meier; control 25.5 days

SMILES | total effective rate (malignant melanoma) | cell population of the S phase (A375 cells [1]; control 8.07 ± 0.39%) [%] | cell population of the G0/G1 phase (A375 cells [1]; control 88.91 ± 0.81%) [%] | AUC(0-inf) [2] [ng·h/mL] | Cmax [2] [ng/mL] | MRT [2] [min] | clearance [2] [mL/min/kg] | half-life [2] [min] | apoptosis and necrosis (mortal cells) (A375 cells [3]) [%] | invasion inhibition rate (A375 cells [4]) [%] | IC50 (A375 cells [5]) [µg/mL] | ALT (alanine aminotransferase) [6] [U/L] | Cr (creatinine) [6] [µmol/L] | H&E staining of normal tissues [6] | RBC (red blood cell) [6] | WBC (white blood cell) [6] | mice bodyweight during the treatment period [6] | organ indexes versus control [6] | mean survival time [7] [days]
CN(C)/N=N/c1[nH]cnc1C(N)=O [dacarbazine] | 10–15% | – | – | – | – | – | – | – | – | – | – | – | – | – | – | – | – | – | –
CC(C)[C@]12O[C@H]1[C@@H]1O[C@]13[C@]1(O[C@H]1C[C@H]1C4=C(CC[C@@]13C)C(=O)OC4)[C@@H]2O [TP, triptolide] | – | 17.73 ± 0.79 | 72.87 ± 3.71 | 1400 ± 81.4 | 612 ± 100 | 3.6 ± 1.8 | 36.6 | 18.6 ± 3.6 | 22.10 ± 1.66 | 45.54 ± 6.35 | 0.0696 (≈ 0.193 µM) | 76.25 ± 4.03 | 27.76 ± 1.52 | heart, liver, and kidney were damaged | 8.11 ± 0.65 × 10^12/L | 6.73 ± 0.51 × 10^9/L | suffered a bodyweight loss | significantly lower than those of the control mice | 29.5

Source: PMC9400227, “αvβ3 integrin-specific exosomes engineered with cyclopeptide for targeted delivery of triptolide against malignant melanoma” (Journal of Nanobiotechnology, 2022)
